The source of these data is article PMC2997738 (2008).

The subject of experiment [1] is GdG-3 (RNA, riboswitch) GGACAUACAAUCGCGUGGAUAUGGCACGCAAGAUCCCGCCGGGCACCGUAAAUGUCCGACUAUGUCC
As to the kind of experiment: ITC. To be noted: 100 mM KCl, 20 mM MgCl2; 50 mM K+-Hepes pH 7.5, 30 °C; apparent.

The subject of experiment [2] is Wild-type G-box B. subtilis xpt–pbuX (xpt) (RNA, riboswitch) GGACAUAUAAUCGCGUGGAUAUGGCACGCAAGUUUCUACCGGGCACCGUAAAUGUCCGACUAUGUCC
As to the kind of experiment: ITC. To be noted: 100 mM KCl, 20 mM MgCl2; 50 mM K+-Hepes pH 7.5, 30 °C; apparent.

As to `Nc1nc2[nH]cnc2c(=O)[nH]1`, the “KD,G” value in experiment [1] turned out to be 1200 ± 700 µM.

Regarding `Nc1nc2c(ncn2[C@@H]2O[C@H](CO)[C@@H](O)[C@H]2O)c(=O)[nH]1`, in experiment [1], the “KD,rG” value was 121 ± 8 µM.

Regarding `Nc1nc2c(ncn2[C@H]2C[C@H](O)[C@@H](CO)O2)c(=O)[nH]1`, the “KD,dG” value in experiment [2] is 12 ± 1 µM; in experiment [1], 39 ± 1 µM.
